Assays:
MDA-MB-231 = experiment: Cancer cell growth inhibition (CellTiter-Glo), MDA-MB-231; format: cell-based; details: Homo sapiens; Breast Cancer, MDA-MB-231, 72 h treatment
Protocol: (§1) Cell culture-based assays were used to evaluate the ability of compounds of the invention to inhibit cancer cell growth.
(§2) Cells were obtained from the American Type Culture Collection (ATCC). Cells were cultured at 37° C. with 5% CO2 in the appropriate growth medium (see table below), and harvested respectively during the logarithmic growth period and counted with hemocytometer. The cell viability was examined by trypan blue exclusion. Cell concentrations were adjusted to 5.56×10^4 cells/ml with respective medium.
(§3) Stock solutions of test compounds and positive drugs Doxorubicin (Zhejiang, Haizheng, China), Cisplatin (Nanjing Zhiyao, China) and Mitomycin (Zhejiang, Haizheng, China) were prepared in dimethyl sulphoxide (DMSO) or PBS at 20 mM.
(§4) In order to determine the IC50 for each compound, experiments were carried out in 96-well plates and the cell lines seeded at a density of 5,000 cells/well. […] All treatments were performed in triplicate. 10 μl of drug solution was added to each well and incubated for 72 hours. At the end of the incubation, 100 μl of the CellTiter-Glo Reagent were added to each well and the contents were mixed for 2 munites on an orbital shaker to induce cell lysis. The plate was incubated at room temperature for 10 minutes to stabilize luminiscent signal, and luminiscent was recorded. […] In order to calculate IC50 values, dose-responsive curves were fitted using nonlinear regression model with a sigmoidal dose response.

SK-BR-3 = experiment: Cancer cell growth inhibition (CellTiter-Glo), SK-BR-3; format: cell-based, Human; details: Homo sapiens; Breast Cancer, SK-BR-3, 72 h treatment
Protocol: as §1, §2, §3, §4

Colo205 = experiment: Cancer cell growth inhibition (CellTiter-Glo), Colo205; format: cell-based; details: Homo sapiens, COLO 205; Colorectal Cancer, Colo205, 72 h treatment
Protocol: as §1, §2, §3, §4

DLD-1 = experiment: Cancer cell growth inhibition (CellTiter-Glo), DLD-1; format: cell-based, Human; details: Homo sapiens; Colorectal Cancer, DLD-1, 72 h treatment
Protocol: as §1, §2, §3, §4

SW620 = experiment: Cancer cell growth inhibition (CellTiter-Glo), SW620; format: cell-based; details: Homo sapiens, SW-620; Colorectal Cancer, SW620, 72 h treatment
Protocol: as §1, §2, §3, §4

Calu-6 = experiment: Cancer cell growth inhibition (CellTiter-Glo), Calu-6; format: cell-based, Human; details: Homo sapiens; Lung Cancer, Calu-6, 72 h treatment
Protocol: as §1, §2, §3, §4

NCI-H1703 = experiment: Cancer cell growth inhibition (CellTiter-Glo), NCI-H1703; format: cell-based, Human; details: Homo sapiens; Lung Cancer, NCI-H1703, 72 h treatment
Protocol: as §1, §2, §3, §4

U-87MG = experiment: Cancer cell growth inhibition (CellTiter-Glo), U-87MG; format: cell-based, Human; details: Homo sapiens, Glioblastoma, 72 h treatment
Protocol: as §1, §2, §3, §4

Bx-PC-3 = experiment: Cancer cell growth inhibition (CellTiter-Glo), Bx-PC-3; format: cell-based, Human; details: Homo sapiens, BXPC-3; Pancreatic Cancer, Bx-PC-3, 72 h treatment
Protocol: as §1, §2, §3, §4

786-O = experiment: Cancer cell growth inhibition (CellTiter-Glo), 786-O; format: cell-based, Human; details: Homo sapiens, 786-0, Kidney Cancer, 72 h treatment
Protocol: as §1, §2, §3, §4

HepG2 = experiment: Cancer cell growth inhibition (CellTiter-Glo), HepG2; format: cell-based; details: Homo sapiens; Liver Cancer, HepG2, 72 h treatment
Protocol: as §1, §2, §3, §4

A375 = experiment: Cancer cell growth inhibition (CellTiter-Glo), A375; format: cell-based, Human; details: Homo sapiens, A-375; Melanoma, A375, 72 h treatment
Protocol: as §1, §2, §3, §4

SK-MEL-5 = experiment: Cancer cell growth inhibition (CellTiter-Glo), SK-MEL-5; format: cell-based, Human; details: Homo sapiens; Melanoma, SK-MEL-5, 72 h treatment
Protocol: as §1, §2, §3, §4

CNE2 = experiment: Cancer cell growth inhibition (CellTiter-Glo), CNE2; format: cell-based, Human; details: Homo sapiens, CNE-2; Nasopharyngeal, CNE2, 72 h treatment
Protocol: as §1, §2, §3, §4

MCG803 = experiment: Cancer cell growth inhibition (CellTiter-Glo), MCG803; format: cell-based, Human; details: Homo sapiens; Gastric Cancer, MCG803, 72 h treatment
Protocol: as §1, §2, §3, §4

NCI-N87 = experiment: Cancer cell growth inhibition (CellTiter-Glo), NCI-N87; format: cell-based, Human; details: Homo sapiens; Gastric Cancer, NCI-N87, 72 h treatment
Protocol: as §1, §2, §3, §4

BGC-823 = experiment: Cancer cell growth inhibition (CellTiter-Glo), BGC-823; format: cell-based, Human; details: Homo sapiens; Gastric Cancer, BGC-823, 72 h treatment
Protocol: as §1, §2, §3, §4

SK-OV-3 = experiment: Cancer cell growth inhibition (CellTiter-Glo), SK-OV-3; format: cell-based, Human; details: Homo sapiens; Ovarian Cancer, SK-OV-3, 72 h treatment
Protocol: as §1, §2, §3, §4

OVCAR3 = experiment: Cancer cell growth inhibition (CellTiter-Glo), OVCAR3; format: cell-based, Human; details: Homo sapiens, OVCAR-3; Ovarian Cancer, OVCAR3, 72 h treatment
Protocol: as §1, §2, §3, §4

K562 = experiment: Cancer cell growth inhibition (CellTiter-Glo), K562; format: cell-based, Human; details: Homo sapiens; CML, K562, 72 h treatment
Protocol: as §1, §2, §3, §4

SMILES	IC50 (MDA-MB-231)	IC50 (SK-BR-3)	IC50 (Colo205)	IC50 (DLD-1)	IC50 (SW620)	IC50 (Calu-6)	IC50 (NCI-H1703)	IC50 (U-87MG)	IC50 (Bx-PC-3)	IC50 (786-O)	IC50 (HepG2)	IC50 (A375)	IC50 (SK-MEL-5)	IC50 (CNE2)	IC50 (MCG803)	IC50 (NCI-N87)	IC50 (BGC-823)	IC50 (SK-OV-3)	IC50 (OVCAR3)	IC50 (K562)
O=C(CCCCCNC(=O)c1[nH]c(-c2ccc(O)cc2)cc1-c1ccsc1)NO [Example 6, N-(5-(hydroxycarbamoyl)pentyl)-5-(4-hydroxyphenyl)-3-(3-thienyl)-1H-pyrrole-2-carboxamide]	7.89 µM	1.36 µM	0.87 µM	3.5 µM	0.67 µM	3.46 µM	1.83 µM	8.98 µM	2.91 µM	2.7 µM	0.48 µM	3.2 µM	1.02 µM	7.39 µM	2.82 µM	0.48 µM	13.8 µM	3.15 µM	1.74 µM	1.35 µM
O=C(CCCCCNC(=O)c1[nH]c(-c2ccccc2)cc1-c1ccc(O)cc1)NO [Example 1, N-(6-(hydroxyamino)-6-oxohexyl)-3-(4-hydroxyphenyl)-5-phenyl-1H-pyrrole-2-carboxamide]	4.33 µM	3.49 µM	1.87 µM	1.62 µM	1.31 µM	2.79 µM	3.26 µM	5.67 µM	2.68 µM	3.28 µM	1.1 µM	2.05 µM	1.28 µM	2.77 µM	1.11 µM	1 µM	2.16 µM	3.16 µM	3.3 µM	1.02 µM
O=C(CCCCCNC(=O)c1[nH]c(-c2ccc(O)cc2)cc1-c1ccccc1)NO [Example 2, N-(6-(hydroxyamino)-6-oxohexyl)-5-(4-hydroxyphenyl)-3-phenyl-1H-pyrrole-2-carboxamide]	9.03 µM	3.37 µM	1.82 µM	4.19 µM	1.48 µM	4.22 µM	2.06 µM	11.8 µM	4.27 µM	3.51 µM	0.99 µM	4.07 µM	1.87 µM	10.1 µM	3.08 µM	1.24 µM	11.7 µM	6.88 µM	3.34 µM	1.61 µM
O=C(CCCCCNC(=O)c1[nH]c(-c2ccc(O)cc2)cc1-c1ccoc1)NO [Example 5, 3-(3-furyl)-N-(5-(hydroxycarbamoyl)pentyl)-5-(4-hydroxy-phenyl)-1H-pyrrole-2-carboxamide]	8.02 µM	0.43 µM	0.59 µM	2.51 µM	0.3 µM	4.66 µM	1.64 µM	8.72 µM	2.42 µM	3.14 µM	0.28 µM	3.64 µM	0.82 µM	10.1 µM	2.61 µM	0.16 µM	23.1 µM	1.56 µM	1.05 µM	1.75 µM

Reference: patent US20150038545A1, “HYDROXYPHENYL PYRROLE COMPOUNDS CONTAINING AN HYDROXAMIC ACID AS HDAC INHIBITORS AND MEDICINAL APPLICATIONS THEREOF” (UNIVERSIDAD DEL PAÍS VASCO, priority 2011, published 2015)
